# Entries after “also recorded” stand apart in the source; their conditions may differ.
# Assays:
# [1] = system: canonical NF-κB signaling through IKK2 in HeLa cells; experiment: Western blot of canonical NF-κB signaling in TNF-α-treated HeLa cells; assay type: cell-based, human; details: increasing peptide concentrations
# Experimental: (§1) To prepare nuclear and cytoplasmic protein extracts, HeLa, MEF, and RAW 264.7 cells were lysed in buffer containing 4.3 mM Na2HPO4, 1.47 mM KH2PO4 pH 7.4, 137 mM NaCl, 2.7 mM KCl, 1 mM DTT, 0.05% (v/v) NP-40, and 1×protease inhibitor cocktail for 10 minutes on ice and spun at 3,000 rpm at 4° C. for 10 minutes. The supernatant containing the cytoplasmic fraction was quantified by Bio-Rad protein assay to determine the total amount of protein. Pellets were resuspended in nuclear extraction buffer (25 mM Tris-HCl pH 7.5, 420 mM NaCl, 10% glycerol, 0.2 mM EDTA, 1 mM DTT, 0.5 mM PMSF, 1×protease inhibitor cocktail) once and then subjected to three lysis cycles (freeze at −80° C. and thaw at 37° C.). Finally, samples were centrifuged at 13,000 rpm at 4° C. for 20 minutes, and supernatants containing the soluble nuclear fraction were measured by the Bio-Rad protein assay to determine the total amount of protein. Nuclear and cytoplasmic extracts were aliquoted and kept at −80° C.
# (§2) HeLa, MEF, RAW 264.7 cells were cultured in Dulbecco's MEM containing 10% fetal bovine […] supplemented with penicillin and streptomycin, at 37° C. in a humidity incubator with 5% CO2. RAW 264.7 cells were seeded and allowed to adhere for 24 hours then treated with NEMO^ActPep or NEMO^ActPep 6G at different concentrations 60 min before the LPS challenge (100 ng/ml). After 2 hours, nuclear and cytoplasmic extracts were collected. HeLa and MEF cells seeded for 24 hours then treated with NEMO^ActPep or NEMO^ActPep 6G at different concentrations 60 min before the TNF-α challenge (10 ng/ml) for 15 minutes and then nuclear and cytoplasmic extracts were collected. MEF cells were treated with NEMO^ActPep or NEMO^ActPep 6G at different concentrations 1 hour before the LTβR challenge (300 ng/ml). After 24 hours whole cell extracts were collected and aliquoted and kept at −80° C. for further experiments.
# (§3) Equivalent amounts of protein from cell extracts was separated by SDS-PAGE and transferred to polyvinylidene fluoride (PVDF) membranes (Millipore, Bedford, MA, USA). The membrane was blocked with 5% bovine serum albumin (BSA) for 1 hour at room temperature and then the membrane was incubated with the primary antibodies overnight at 4° C. Antibodies for IKK2, His, HA, Myc, GST, Ubiquitin, IκBα, phospho-IKK2, p65/ReIA, p84, γ-Actin, p100/52, phospho-ERK, phospho-JNK, phospho-p38, ERK, JNK, and p38 were used for detecting multiple specific protein targets. After binding of an appropriate secondary antibody coupled to horseradish peroxidase, the immunoreactive bands were visualized by enhanced chemiluminescence substrate.
# The inhibitory effects of TAT-NEMO^ActPep were further verified on canonical NF-κB signaling in HeLa cells by assessing IKK2 activation loop phosphorylation, IκBα degradation, and NF-κB ReIA/p65 subunit subcellular localization. Consistent with the observations of decreased nuclear NF-κB DNA binding activity by EMSA, treatment with TAT-NEMO^ActPep blocked IKK2 phosphorylation, IκBα proteolysis, and nuclear translocation of ReIA (FIG. 5B).
# [2] = system: non-canonical NF-κB signaling (IKK1, p100 processing); experiment: Western blot of p100 processing after LTβR engagement (non-canonical NF-κB signaling); assay type: cell-based; details: increasing peptide concentrations; HeLa cells per FIG. 5C legend
# Experimental: as §2
# Equivalent amounts of protein from cell extracts was separated by SDS-PAGE and transferred to polyvinylidene fluoride (PVDF) membranes (Millipore, Bedford, MA, USA). The membrane was blocked with 5% bovine serum albumin (BSA) for 1 hour at room temperature and then the membrane was incubated with the primary antibodies overnight at 4° C. […]
# [3] = system: NF-κB DNA binding in RAW 264.7 murine macrophage cells; experiment: EMSA of NF-κB DNA binding, nuclear lysates of LPS-treated RAW 264.7 cells; assay type: cell-based; details: RAW 264.7 cells, 100 ng/mL LPS for 2 hours
# Experimental: as §1
# HeLa, MEF, RAW 264.7 cells were cultured in Dulbecco's MEM containing 10% fetal bovine […] supplemented with penicillin and streptomycin, at 37° C. in a humidity incubator with 5% CO2. RAW 264.7 cells were seeded and allowed to adhere for 24 hours then treated with NEMO^ActPep or NEMO^ActPep 6G at different concentrations 60 min before the LPS challenge (100 ng/ml). After 2 hours, nuclear and cytoplasmic extracts were collected. […]
# (§4) Electrophoretic mobility shift assay (EMSA) was performed using recombinant full length NF-κB ReIA homodimer as a positive control as previously described (45). […] The amount of protein in lysates was quantified by Bio-Rad protein assay. EMSA analysis with quantitative densitometry and signal intensity was quantitated using ImageJ software. […]
# It was then tested if the observed effect is universal across species and cell types. […] The effect of TAT-NEMO^ActPep on NF-κB DNA binding was also analyzed in MEF cells by EMSA.
# [4] = system: NF-κB DNA binding activity in HeLa cells; experiment: EMSA of NF-κB DNA binding, nuclear extracts of TNF-α-treated HeLa cells; assay type: cell-based, human; details: increasing concentrations 10-50 μM; TNF-α-treated HeLa cells
# Experimental: as §1, §2, §4
# It is intrigued by the ability of such a small segment (residues 384-389) of human NEMO to mediate interaction with and promote activation loop phosphorylation of IKK2. […] NF-κB activity was measured by EMSA using nuclear extracts and radiolabeled KB DNA from the immunoglobulin kappa light chain gene (Ig-κB) as the probe (FIG. 5A).
# [5] = system: MAP kinases JNK, Erk2 and p38; experiment: Western blot of MAP kinase phosphorylation in TNF-α-treated HeLa cells; assay type: cell-based, human
# Experimental: as §3
# It was also tested if TAT-NEMO^ActPep has any effect on non-canonical NF-κB signaling. This alternative NF-κB signaling pathway is activated in response to stimulation of specific cytokine receptors and leads to activation of IKK1 and consequent processing of the p100 precursor to the mature NF-κB subunit p52 (30,31). […] To further investigate the possible involvement of TAT-NEMO^ActPep in other signaling pathways, the effect of the peptide on MAPK activation was tested by monitoring the phosphorylation status of JNK, Erk2, and p38 upon TNF-α treatment of HeLa cells. […]
# [6] = system: canonical NF-κB signaling through IKK2 in RAW 264.7 murine macrophage cells; experiment: Western blot of canonical NF-κB signaling in LPS-treated RAW 264.7 cells; assay type: cell-based; details: 100 ng/mL LPS for 2 hours
# Experimental: as §1, §2, §3
# It was then tested if the observed effect is universal across species and cell types. The effect of TAT-NEMO^ActPep was tested in RAW 264.7 murine macrophage cells treated with 100 ng/mL purified bacterial lipopolysaccharide (LPS) for 2 hours. Again, NF-κB DNA binding and ReIA subunit nuclear localization were both inhibited as were phosphorylation of the IKK2 activation loop and degradation of IκBα. […] The effect of TAT-NEMO^ActPep on NF-κB DNA binding was also analyzed in MEF cells by EMSA.
# [7] = target: T1, full length human IKK2 (recombinant, N-terminal hexahistidine-TEV tag) (human, UniProt O14920 1-756); experiment: GST pull-down with purified proteins, western blot
# T1 construct: mature; Produced in Sf9 insect cells with baculovirus; also called IKKβ; full length IKK2; not shown: TEV cleavage site and vector residues of pFastBacHTb
# T1 sequence: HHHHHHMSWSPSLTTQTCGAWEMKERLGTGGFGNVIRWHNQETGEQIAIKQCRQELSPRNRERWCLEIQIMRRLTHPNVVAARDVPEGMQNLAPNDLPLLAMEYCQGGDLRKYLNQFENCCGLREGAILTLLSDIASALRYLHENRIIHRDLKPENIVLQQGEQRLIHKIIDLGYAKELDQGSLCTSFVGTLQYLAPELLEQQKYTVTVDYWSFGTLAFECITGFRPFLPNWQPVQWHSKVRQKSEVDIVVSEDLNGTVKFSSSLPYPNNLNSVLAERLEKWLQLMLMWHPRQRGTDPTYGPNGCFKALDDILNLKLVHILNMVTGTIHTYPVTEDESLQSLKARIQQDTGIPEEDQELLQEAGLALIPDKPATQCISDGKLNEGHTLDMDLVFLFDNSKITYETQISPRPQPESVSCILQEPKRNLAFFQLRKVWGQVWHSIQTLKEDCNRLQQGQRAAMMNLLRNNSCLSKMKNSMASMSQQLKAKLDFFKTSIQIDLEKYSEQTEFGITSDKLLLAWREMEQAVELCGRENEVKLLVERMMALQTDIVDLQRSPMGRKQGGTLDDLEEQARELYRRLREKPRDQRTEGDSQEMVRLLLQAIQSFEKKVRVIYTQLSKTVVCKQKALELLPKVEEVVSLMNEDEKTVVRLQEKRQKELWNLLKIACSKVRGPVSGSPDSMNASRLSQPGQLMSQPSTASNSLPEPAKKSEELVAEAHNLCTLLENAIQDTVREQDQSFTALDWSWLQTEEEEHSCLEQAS
# [8] = target: T2, IKK2 (purified recombinant; construct not stated for the experiment of FIG. 2D) (human, UniProt O14920 1-756, limits assumed); experiment: GST pull-down with purified proteins in the presence of Ub4, western blot
# T2 sequence (looked up): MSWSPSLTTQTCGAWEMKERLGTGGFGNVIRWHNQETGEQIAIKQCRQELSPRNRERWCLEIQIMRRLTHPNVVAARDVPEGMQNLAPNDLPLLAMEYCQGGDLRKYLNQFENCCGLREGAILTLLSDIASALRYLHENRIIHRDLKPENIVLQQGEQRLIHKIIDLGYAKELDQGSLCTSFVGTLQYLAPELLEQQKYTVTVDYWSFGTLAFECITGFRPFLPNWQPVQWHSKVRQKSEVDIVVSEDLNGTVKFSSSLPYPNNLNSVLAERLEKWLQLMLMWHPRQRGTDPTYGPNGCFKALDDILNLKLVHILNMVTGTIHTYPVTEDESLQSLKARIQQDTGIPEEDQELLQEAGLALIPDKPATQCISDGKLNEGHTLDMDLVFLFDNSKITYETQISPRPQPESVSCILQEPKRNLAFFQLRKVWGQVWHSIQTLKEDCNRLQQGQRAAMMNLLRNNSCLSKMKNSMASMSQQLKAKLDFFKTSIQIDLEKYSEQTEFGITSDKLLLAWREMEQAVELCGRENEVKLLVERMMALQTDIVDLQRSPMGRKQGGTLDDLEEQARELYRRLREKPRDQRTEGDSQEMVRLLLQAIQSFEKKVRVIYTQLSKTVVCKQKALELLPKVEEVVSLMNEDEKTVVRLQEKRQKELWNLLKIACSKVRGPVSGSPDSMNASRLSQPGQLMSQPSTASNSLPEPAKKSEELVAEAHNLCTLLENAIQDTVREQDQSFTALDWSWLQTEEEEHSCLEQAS
molecule,measurement,setting,value
TAT-NEMO^ActPep 6G: control variant of TAT-NEMO^ActPep with NEMO residues 384-389 mutated to glycine (SEQ ID NO 3) (YGRKKRRQRRRGGLSSPLALPSGGGGGGEE) [reference compound],IKK2 activation loop phosphorylation (western blot),[1],showed no such effects
same,IκBα degradation / proteolysis (western blot),[1],showed no such effects
same,NF-κB ReIA/p65 subunit nuclear localization (western blot),[1],showed no such effects
same,processing of p100 in response to LTβR engagement (western blot),[2],not observed any effect; also recorded: no change in the extent of p100 processing
same,NF-κB DNA binding,[3],did not show such effects
same,NF-κB-dependent shift of radiolabeled probe (EMSA),[4],reduction was not observed; also recorded: does not
same,"phosphorylation of JNK, Erk2 and p38 MAP kinases (western blot)",[5],Neither TAT-NEMO^ActPep nor TAT-NEMO^ActPep 6G influenced; also recorded: no effect
same,ReIA subunit nuclear localization (western blot),[6],did not show such effects
same,degradation of IκBα (western blot),[6],did not show such effects
same,phosphorylation of the IKK2 activation loop (western blot),[6],did not show such effects
"GST-NEMO^111-419 (other, human, UniProt Q9Y6K9 111-419, looked up, not shown: glutathione-S-transferase (GST) tag of vector pGEX4T-2, N-terminal) KLDLKRQKEQALREVEHLKRCQQQMAEDKASVKAQVTSLLGELQESQSRLEAATKECQALEGRARAASEQARQLESEREALQQQHSVQVDQLRMQGQSVEAALRMERQAASEEKRKLAQLQVAYHQLFQEYDNHIKSSVVGSERKRGMQLEDLKQQLQQAEEALVAKQEVIDKLKEEAEQHKIVMETVPVLKAQADIYKADFQAERQAREKLAEKKELLQEQLEQLQREYSKLKASCQESARIEDMRKRHVEVSQAPLPPAPAYLSSPLALPSQRRSPPEEPPDFCCPKCQYQAPDMDTLQIHVMECIE",binding result,[7],no binding
"GST-NEMO^241-419 6G (other, human, UniProt Q9Y6K9 241-419, looked up, not shown: glutathione-S-transferase (GST) tag of vector pGEX4T-2, N-terminal) YDNHIKSSVVGSERKRGMQLEDLKQQLQQAEEALVAKQEVIDKLKEEAEQHKIVMETVPVLKAQADIYKADFQAERQAREKLAEKKELLQEQLEQLQREYSKLKASCQESARIEDMRKRHVEVSQAPLPPAPAYLSSPLALPSGGGGGGEEPPDFCCPKCQYQAPDMDTLQIHVMECIE",binding result,[8],no binding
"GST-NEMO^241-419 3G (other, human, UniProt Q9Y6K9 241-419, looked up, not shown: glutathione-S-transferase (GST) tag of vector pGEX4T-2, N-terminal) YDNHIKSSVVGSERKRGMQLEDLKQQLQQAEEALVAKQEVIDKLKEEAEQHKIVMETVPVLKAQADIYKADFQAERQAREKLAEKKELLQEQLEQLQREYSKLKASCQESARIEDMRKRHVEVSQAPLPPAPAYLSSPLALPSGGGSPPEEPPDFCCPKCQYQAPDMDTLQIHVMECIE",binding result,[8],no binding

# From patent US20240166703A1, “ANTI-INFLAMMATORY PEPTIDE AND METHOD OF USE THEREOF” (The Regents of the University of California, priority 2021, published 2024)
